# Data reported in patent US9802927B2, “Oxadiazine compounds and methods of use thereof” (Denali Therapeutics, Inc., priority 2015, dated 2017).
# Test system: Aβ42
# Test: In vitro cell screening assay in H4 cells expressing human APP751: Aβ42 by sandwich ELISA
# Assay type: cell-based
# Conditions: Homo sapiens, compounds 0.003-10 μM, incubated overnight (16-18 h), sandwich ELISA of supernatant
# Method in brief: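 H4 neuroglioma cells stably expressing wild-type human APP751, switched to Pro293 medium and treated with compounds (0.003-10 μM, 0.33% DMSO) for 16-18 h at 37 °C. Supernatant Aβ42 quantified by sandwich ELISA (C-terminal capture, 4G8-HRP detection, A450); EC50 by sigmoidal fit normalized to DMSO and DAPT controls.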
row,EC50 [nM],Structure (SMILES)
1,> 3000,"COc1nc(C2=NOCC(c3ccc(S(C)(=O)=O)cc3)N2)ccc1-n1cnc(C)c1 (single isomer, unassigned; (-)) [Example 217A, (−)-3-(6-methoxy-5-(4-methyl-1H-imidazol-1-yl)pyridin-2-yl)-5-(4-(methylsulfonyl)phenyl)-5,6-dihydro-4H-1,2,4-oxadiazine]"

# Same assay, conditions: compounds 0.003-10 μM, incubated overnight (16-18 h), sandwich ELISA of supernatant
row,Structure (SMILES),EC50 [nM]
1,"COc1nc(C2=NOCC(c3ccc(C(C)(C)O)cc3)N2)ccc1-n1cnc(C)c1 (single isomer, unassigned; (+)) [Example 268B, (+)-2-(4-(3-(6-methoxy-5-(4-methyl-1H-imidazol-1-yl)pyridin-2-yl)-5,6-dihydro-4H-1,2,4-oxadiazin-5-yl)phenyl)propan-2-ol]",270
2,"COc1nc(C2=NOCC(c3cn(C)c4cc(C(F)(F)F)ccc34)N2)ccc1-n1cnc(C)c1 (single isomer, unassigned; (+)) [Example 197A, (+)-3-(6-methoxy-5-(4-methyl-1H-imidazol-1-yl)pyridin-2-yl)-5-(1-methyl-6-(trifluoromethyl)-1H-indol-3-yl)-5,6-dihydro-4H-1,2,4-oxadiazine]",3.4
3,"COc1nc(C2=NOCC(c3cn(C(C)C)c4cccc(F)c34)N2)ccc1-n1cnc(C)c1 (single isomer, unassigned; (+)) [Example 196A, (+)-5-(4-fluoro-1-isopropyl-1H-indol-3-yl)-3-(6-methoxy-5-(4-methyl-1H-imidazol-1-yl)pyridin-2-yl)-5,6-dihydro-4H-1,2,4-oxadiazine]",22.5
4,"COc1cc(C2=NOCC(c3nc4cccc(C)c4o3)N2C)ccc1-n1cnc(C)c1 (single isomer, unassigned; (-)) [Example 212B, (−)-2-(3-(3-methoxy-4-(4-methyl-1H-imidazol-1-yl)phenyl)-4-methyl-5,6-dihydro-4H-1,2,4-oxadiazin-5-yl)-7-methylbenzo[d]oxazole]",> 3000
5,"COc1nc(C2=NOCC(C3CCC3)N2)ccc1-n1cnc(C)c1 (single isomer, unassigned; (-)) [Example 163B, (−)-5-cyclobutyl-3-(6-methoxy-5-(4-methyl-1H-imidazol-1-yl)pyridin-2-yl)-5,6-dihydro-4H-1,2,4-oxadiazine]",368
6,"COc1nc(C2=NOCC(c3cn(C(C)C)c4cc(F)ccc34)N2)ccc1-n1cnc(C)c1 (single isomer, unassigned; (-)) [Example 219B, (−)-5-(6-fluoro-1-isopropyl-1H-indol-3-yl)-3-(6-methoxy-5-(4-methyl-1H-imidazol-1-yl)pyridin-2-yl)-5,6-dihydro-4H-1,2,4-oxadiazine]",194
7,"COc1nc(C2=NOCC(c3oc4ccccc4c3C)N2)ccc1-n1cnc(C)c1 (single isomer, unassigned; (-)) [Example 16A, (−)-3-(6-methoxy-5-(4-methyl-1H-imidazol-1-yl)pyridin-2-yl)-5-(3-methylbenzofuran-2-yl)-5,6-dihydro-4H-1,2,4-oxadiazine]",508
8,"COc1nc(C2=NOCC(CC3CC3)N2)ccc1-n1cnc(C)c1 (single isomer, unassigned) [Example 159A, 5-(cyclopropylmethyl)-3-(6-methoxy-5-(4-methyl-1H-imidazol-1-yl)pyridin-2-yl)-5,6-dihydro-4H-1,2,4-oxadiazine]",> 3000
9,"COc1nc(C2=NOCC(c3cc4cc(C(F)(F)F)ccc4o3)N2)ccc1-n1cnc(C)c1 (single isomer, unassigned; (+)) [Example 259B, (+)-3-(6-methoxy-5-(4-methyl-1H-imidazol-1-yl)pyridin-2-yl)-5-(5-(trifluoromethyl)benzofuran-2-yl)-5,6-dihydro-4H-1,2,4-oxadiazine]",9
10,"COc1cc(C2=NOCC(c3nc4cccc(C)c4o3)N2C)ccc1-n1cnc(C)c1 (single isomer, unassigned; (+)) [Example 212A, (+)-2-(3-(3-methoxy-4-(4-methyl-1H-imidazol-1-yl)phenyl)-4-methyl-5,6-dihydro-4H-1,2,4-oxadiazin-5-yl)-7-methylbenzo[d]oxazole]",789
11,"COc1nc(C2=NOCC(c3csc4ccccc34)N2)ccc1-n1cnc(C)c1 (single isomer, unassigned; (+)) [Example 68B, (+)-5-(benzo [b]thiophen-3-yl)-3-(6-methoxy-5-(4-methyl-1H-imidazol-1-yl)pyridin-2-yl)-5,6-dihydro-4H-1,2,4-oxadiazine]",20.8
12,"COc1nc(C2=NOCC(c3cn(C)c4cccc(OC)c34)N2)ccc1-n1cnc(C)c1 (single isomer, unassigned; (+)) [Example 252B, (+)-5-(4-methoxy-1-methyl-1H-indol-3-yl)-3-(6-methoxy-5-(4-methyl-1H-imidazol-1-yl)pyridin-2-yl)-5,6-dihydro-4H-1,2,4-oxadiazine]",36.3
13,"COc1nc(C2=NOCC(c3cn(C)c4ccccc34)N2)ccc1-n1cnc(C)c1 (single isomer, unassigned; (+)) [Example 189A, (+)-3-(6-methoxy-5-(4-methyl-1H-imidazol-1-yl)pyridin-2-yl)-5-(1-methyl-1H-indol-3-yl)-5,6-dihydro-4H-1,2,4-oxadiazine]",24
14,"COc1nc(C2=NOCC(c3cc4ccccc4n3C)N2)ccc1-n1cnc(C)c1 (single isomer, unassigned; (+)) [Example 205B, (+)-3-(6-methoxy-5-(4-methyl-1H-imidazol-1-yl)pyridin-2-yl)-5-(1-methyl-1H-indol-2-yl)-5,6-dihydro-4H-1,2,4-oxadiazine]",27
15,"COc1nc(C2=NOCC(CC(C)C)N2)ccc1-n1cnc(C)c1 (single isomer, unassigned; (-)) [Example 154B, (−)-5-isobutyl-3-(6-methoxy-5-(4-methyl-1H-imidazol-1-yl)pyridin-2-yl)-5,6-dihydro-4H-1,2,4-oxadiazine]",199
16,"COc1nc(C2=NOCC(c3cn(C)c4ccc(C(F)(F)F)cc34)N2)ccc1-n1cnc(C)c1 (single isomer, unassigned; (+)) [Example 233B, (+)-3-(6-methoxy-5-(4-methyl-1H-imidazol-1-yl)pyridin-2-yl)-5-(1-methyl-5-(trifluoromethyl)-1H-indol-3-yl)-5,6-dihydro-4H-1,2,4-oxadiazine]",1.7

# Second part, the molecule after the results:
row,EC50 [nM],Structure (SMILES)
1,47.1,"COc1nc(C2=NOCC(c3cn(C)c4ccc(Cl)c(F)c34)N2)ccc1-n1cnc(C)c1 (single isomer, unassigned; (-)) [Example 237B, (−)-5-(5-chloro-4-fluoro-1-methyl-1H-indol-3-yl)-3-(6-methoxy-5-(4-methyl-1H-imidazol-1-yl)pyridin-2-yl)-5,6-dihydro-4H-1,2,4-oxadiazine]"
2,> 3000,"COc1nc(C2=NOCC(c3ccc4c(c3)OC(F)(F)O4)N2)ccc1-n1cnc(C)c1 (single isomer, unassigned; (-)) [Example 225A]"
3,9.5,"COc1nc(C2=NOCC(c3cn(C)c4ncc(Cl)cc34)N2)ccc1-n1cnc(C)c1 (single isomer, unassigned; (+)) [Example 264B, (+)-5-(5-chloro-1-methyl-1H-pyrrolo[2,3-b]pyridin-3-yl)-3-(6-methoxy-5-(4-methyl-1H-imidazol-1-yl)pyridin-2-yl)-5,6-dihydro-4H-1,2,4-oxadiazine]"
4,89.5,"COc1nc(C2=NOCC(c3cn(C)c4cc(F)c(Cl)cc34)N2)ccc1-n1cnc(C)c1 (single isomer, unassigned; (-)) [Example 216A, (−)-5-(5-chloro-6-fluoro-1-methyl-1H-indol-3-yl)-3-(6-methoxy-5-(4-methyl-1H-imidazol-1-yl)pyridin-2-yl)-5,6-dihydro-4H-1,2,4-oxadiazine]"
5,767,"COc1nc(C2=NOCC(c3ccc(C4CC4)cc3)N2)ccc1-n1cnc(C)c1 (single isomer, unassigned; (-)) [Example 116A, (−)-5-(4-cyclopropylphenyl)-3-(6-methoxy-5-(4-methyl-1H-imidazol-1-yl)pyridin-2-yl)-5,6-dihydro-4H-1,2,4-oxadiazine]"
6,9.9,"COc1nc(C2=NOCC(c3cc(Cl)cc(Cl)c3)N2)ccc1-n1cnc(C)c1 (single isomer, unassigned; (+)) [Example 118B, (+)-5-(3,5-dichlorophenyl)-3-(6-methoxy-5-(4-methyl-1H-imidazol-1-yl)pyridin-2-yl)-5,6-dihydro-4H-1,2,4-oxadiazine]"
7,2630,"COc1nc(C2=NOCC(c3ccc(F)c(Cl)c3)N2)ccc1-n1cnc(C)c1 (single isomer, unassigned; (-)) [Example 108A, (−)-5-(3-chloro-4-fluorophenyl)-3-(6-methoxy-5-(4-methyl-1H-imidazol-1-yl)pyridin-2-yl)-5,6-dihydro-4H-1,2,4-oxadiazine]"
8,> 3000,"COc1nc(C2=NOCC(c3ccc(C(F)(F)F)c(F)c3)N2)ccc1-n1cnc(C)c1 (single isomer, unassigned) [Example 121A, 5-(3-fluoro-4-(trifluoromethyl)phenyl)-3-(6-methoxy-5-(4-methyl-1H-imidazol-1-yl)pyridin-2-yl)-5,6-dihydro-4H-1,2,4-oxadiazine]"
9,> 3000,"COc1nc(C2=NOCC(c3cc(F)cc(Cl)c3)N2)ccc1-n1cnc(C)c1 (single isomer, unassigned; (-)) [Example 111A, (−)-5-(3-chloro-5-fluorophenyl)-3-(6-methoxy-5-(4-methyl-1H-imidazol-1-yl)pyridin-2-yl)-5,6-dihydro-4H-1,2,4-oxadiazine]"
10,> 3000,"COc1nc(C2=NOCC(c3cc(F)c(F)c(F)c3)N2)ccc1-n1cnc(C)c1 (single isomer, unassigned; (-)) [Example 91A, (−)-3-(6-methoxy-5-(4-methyl-1H-imidazol-1-yl)pyridin-2-yl)-5-(3,4,5-trifluorophenyl)-5,6-dihydro-4H-1,2,4-oxadiazine]"
11,11.4,"COc1nc(C2=NOCC(c3ccc(Cl)c(Cl)c3)N2)ccc1-n1cnc(C)c1 (single isomer, unassigned; (+)) [Example 49B, (+)-5-(3,4-dichlorophenyl)-3-(6-methoxy-5-(4-methyl-1H-imidazol-1-yl)pyridin-2-yl)-5,6-dihydro-4H-1,2,4-oxadiazine]"
